Reference: publication PMC11062899, “De novo development of small cyclic peptides that are orally bioavailable” (Nature Chemical Biology, 2023)
Where “and” joins values, the source holds several entries; their conditions need not be identical. Equal values may be shown once.

Assays:
[1] = molecular target: T1, rat α-thrombin (Rattus norvegicus, UniProt P18292); test: Protease inhibition, Ki for rat α-thrombin (fluorogenic substrate Z-Gly-Gly-Arg-AMC); type: biochemical; settings: replicates R1-R3
T1 construct: rat α-thrombin (Molecular Innovations) were used at final concentrations of 2 nM and 3 nM; purchased Molecular Innovations
How it was run: (§1)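 Inhibition was measured as AMC fluorescence from 50 μM substrate, monitored for 30 min at 25 °C, relative to a peptide-free control. Human and rat enzymes were present at 2 nM and 3 nM final, respectively, in 50 mM Tris-HCl pH 7.4, 150 mM NaCl, 10 mM MgCl2, 1 mM CaCl2. Ki derives from fitted IC50 via Cheng–Prusoff.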

[2] = molecular target: T2, porcine pepsin (Sus scrofa, UniProt P00791); test: Peptide stability in simulated gastric fluid (SGF); type: in vitro ADME; settings: for SGF stability, Residual peptide Average / SGF stability, Residual peptide: after 8 h vs 0 h (TIC); for SGF stability, Residual peptide Average: average of R1-R3; for SGF stability, Residual peptide: single replicates R1-R3; for remaining at 8 h: simulated gi fluid, 37 °C, pH 1.2, read-out: Proteolytic stability: SGF (8 h) % remaining
T2 construct: 0.32 g of porcine pepsin (Sigma-Aldrich, P7125) was dissolved under gentle agitation; purchased Sigma-Aldrich P7125
How it was run: (§2)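 Peptide from a 1 mM DMSO stock was added to fluid pre-warmed at 37 °C. SGF was pH 1.2 NaCl with porcine pepsin (0.32 g per 100 ml), and SIF was pH 6.8 potassium phosphate with porcine pancreatin (1 g per 100 ml). Supernatant peptide was quantified by LC–MS, with residual expressed as T1/T0.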

[3] = Passive artificial membrane permeability (PAMPA); settings: for PAMPA permeability: % permeability: 50 μM, 12–18 h, acceptor concentration relative to equilibrium; for Papp at 50 μM / Permeability% Average / Permeability% R1 / Permeability% R3: PAMPA; for Papp at 50 μM: pH 7.4; for Permeability% Average: average of R1-R3; for Permeability% R1: replicate R1; for Permeability% R1 / Permeability% R3: TIC of top well sample relative to sample at theoretical equilibrium; for Permeability% R3: replicate R3
Experimental: The plate system consisted of a 96-well microwell plate (donor wells) and a 96-well insert containing a PVDF membrane coated with tri-layers of phospholipids (acceptor wells). Permeability was measured from the bottom plate (donor wells) to the top insert (acceptor wells). Cyclic peptide or reference compound solutions were prepared at a concentration of 50 μM in PBS buffer (pH 7.4) containing 5% DMSO, and 300 μl of the resulting solutions was placed into the donor wells of the PAMPA plate. Acceptor wells were prepared by adding 200 μl of PBS buffer (pH 7.4) containing 5% DMSO. The insert was stacked onto the donor plate, and the system was covered with a lid to avoid evaporation. […] Additionally, 3:2 dilutions of the 50 μM cyclic peptide stocks were prepared in PBS buffer (pH 7.4) containing 5% DMSO to yield a sample corresponding to the theoretical equilibrium between donor and acceptor wells. The samples were run on the LC–MS to measure the cyclic peptide concentration representing maximum permeability. Permeability percent was calculated using equation (4) below.4 Permeability%=PeptideAcceptor/PeptideEquilibrated×100 where [PeptideAcceptor] represents the AUC measured on the LC–MS for the acceptor wells, and [PeptideEquilibrated] represents the AUC measured for the samples diluted to the theoretical equilibrium. Detection limit for the assay was typically at 1% permeability.
Papp values were calculated using equation (5).5 Papp=VD×VA/VD+VA×A×t×−ln1−PeptideAcceptor/PeptideEquilibrated where VD and VA are the volumes of donor and acceptor wells, respectively; A is the area of the membrane; and t is the incubation time.

[4] = molecular target: human α-thrombin (Homo sapiens, UniProt P00734); test: Protease inhibition, Ki for human α-thrombin (fluorogenic substrate Z-Gly-Gly-Arg-AMC); type: biochemical; settings: replicates R1-R3
How it was run: as §1

[5] = Metabolic stability in rat liver microsomes (RLMs); settings: rat, microsomes
[6] = tested on: porcine pancreatin; test: Peptide stability in simulated intestinal fluid (SIF); type: in vitro ADME; settings: after 8 h vs 0 h (TIC); for SIF stability, Residual peptide Average: average of R1-R3; for SIF stability, Residual peptide: single replicates R1-R3
How it was run: as §2

[7] = as above; type: in vitro ADME, porcine; settings: simulated gi fluid; 8 h, 37 °C, pH 6.8; read-out: Proteolytic stability: SIF (8 h) % remaining
How it was run: as §2

[8] = peptide 1.33E+02 uM, slope of proteolytic substrate cleavage over time
[9] = CL (ul/min/mg protein) R1, RLM CL, replicate R1
[10] = CL (ul/min/mg protein) R2, RLM CL, replicate R2
[11] = CL (ul/min/mg protein) R3, RLM CL, replicate R3
[12] = Half Life (min) R1, RLM metabolic stability, replicate R1, 0-60 min
[13] = Half Life (min) R2, RLM metabolic stability, replicate R2, 0-60 min
[14] = Half Life (min) R3, RLM metabolic stability, replicate R3, 0-60 min
[15] = Metabolic stability: Half life T1/2 (min), RLMs, mean and SD, three measurements
[16] = Metabolic stability: RLM CL (ul/min/mg), RLMs, mean and SD, three measurements

T2 sequence (P00791 60-385): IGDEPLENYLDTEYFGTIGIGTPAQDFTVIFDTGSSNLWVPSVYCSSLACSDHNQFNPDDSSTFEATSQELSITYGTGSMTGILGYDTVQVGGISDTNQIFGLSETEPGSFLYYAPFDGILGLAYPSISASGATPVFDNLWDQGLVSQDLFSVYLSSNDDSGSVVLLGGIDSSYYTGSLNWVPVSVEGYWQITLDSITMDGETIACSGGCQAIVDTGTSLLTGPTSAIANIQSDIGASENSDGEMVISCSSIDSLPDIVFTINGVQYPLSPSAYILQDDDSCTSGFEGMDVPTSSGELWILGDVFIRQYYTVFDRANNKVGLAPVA

O=C1NCCSCc2cccc(n2)CSCCC(=O)N2CCC[C@H]2C(=O)N2CCN(C(=O)c3ccc(Cl)s3)CC12 (some centres unmarked) [compound 23]
Rat alpha thrombin inhibition, slope normalized to DMSO [1, 8]: 2.4 and 2.8 and 19.0
Rat alpha thrombin inhibition, slope normalized to DMSO ([1]; peptide 1.67E+01 uM): 12.7 and 12.2 and 32.4
Rat alpha thrombin inhibition, slope normalized to DMSO ([1]; peptide 2.08E+00 uM): 50.5 and 50.4 and 69.3
Rat alpha thrombin inhibition, slope normalized to DMSO ([1]; peptide 3.33E+01 uM): 7.4 and 6.9 and 24.6
Rat alpha thrombin inhibition, slope normalized to DMSO ([1]; peptide 4.17E+00 uM): 35.4 and 36.2 and 53.3
Rat alpha thrombin inhibition, slope normalized to DMSO ([1]; peptide 6.67E+01 uM): 5.7 and 4.4 and 22.7
Rat alpha thrombin inhibition, slope normalized to DMSO ([1]; peptide 8.33E+00 uM): 23.3 and 24.4 and 38.9
SGF stability, Residual peptide Average [2]: 98.66
SGF stability, Residual peptide [2]: 100.45 and 94.90 and 100.63
remaining at 8 h [2]: 99 ± 3%
PAMPA permeability: % permeability [3]: 63 ± 5%
Papp at 50 μM [3]: 6.46 ×10⁻⁶ cm/s
Permeability% Average [3]: 62.6%
Permeability% R1 [3]: 59.23%
Permeability% R3 [3]: 59.76%
Human alpha thrombin inhibition, slope normalized to DMSO ([4]; peptide 1.02E-03 uM): 91.9 and 90.1 and 93.2
Human alpha thrombin inhibition, slope normalized to DMSO ([4]; peptide 1.04E+00 uM): 79.8 and 81.1 and 79.3
Human alpha thrombin inhibition, slope normalized to DMSO ([4]; peptide 1.27E-04 uM): 96.4 and 91.3 and 88.2
Human alpha thrombin inhibition, slope normalized to DMSO ([4]; peptide 1.30E-01 uM): 96.0 and 91.0 and 92.0
Human alpha thrombin inhibition, slope normalized to DMSO [4, 8]: 8.4 and 8.5 and -2.6
Human alpha thrombin inhibition, slope normalized to DMSO ([4]; peptide 1.63E-02 uM): 97.2 and 84.3 and 96.8
Human alpha thrombin inhibition, slope normalized to DMSO ([4]; peptide 1.67E+01 uM): 30.4 and 33.6 and 42.3
Human alpha thrombin inhibition, slope normalized to DMSO ([4]; peptide 2.03E-03 uM): 97.8 and 93.0 and 96.6
Human alpha thrombin inhibition, slope normalized to DMSO ([4]; peptide 2.08E+00 uM): 73.0 and 70.9 and 73.9
Human alpha thrombin inhibition, slope normalized to DMSO ([4]; peptide 2.54E-04 uM): 99.0 and 94.8 and 97.2
Human alpha thrombin inhibition, slope normalized to DMSO ([4]; peptide 2.60E-01 uM): 91.4 and 88.4 and 89.4
Human alpha thrombin inhibition, slope normalized to DMSO ([4]; peptide 3.18E-05 uM): 91.8 and 117.4 and 98.4
Human alpha thrombin inhibition, slope normalized to DMSO ([4]; peptide 3.26E-02 uM): 94.8 and 91.6 and 96.2
Human alpha thrombin inhibition, slope normalized to DMSO ([4]; peptide 3.33E+01 uM): 18.0 and 18.8 and 20.4
Human alpha thrombin inhibition, slope normalized to DMSO ([4]; peptide 4.07E-03 uM): 93.4 and 91.5 and 94.8
Human alpha thrombin inhibition, slope normalized to DMSO ([4]; peptide 4.17E+00 uM): 59.5 and 58.3 and 61.9
Human alpha thrombin inhibition, slope normalized to DMSO ([4]; peptide 5.09E-04 uM): 97.5 and 92.8 and 99.8
Human alpha thrombin inhibition, slope normalized to DMSO ([4]; peptide 5.21E-01 uM): 87.6 and 85.1 and 86.8
Human alpha thrombin inhibition, slope normalized to DMSO ([4]; peptide 6.36E-05 uM): 100.5 and 90.1 and 98.6
Human alpha thrombin inhibition, slope normalized to DMSO ([4]; peptide 6.51E-02 uM): 92.5 and 91.3 and 93.7
Human alpha thrombin inhibition, slope normalized to DMSO ([4]; peptide 6.67E+01 uM): 11.3 and 18.5 and 12.0
Human alpha thrombin inhibition, slope normalized to DMSO ([4]; peptide 8.14E-03 uM): 94.9 and 92.1 and 95.9
Human alpha thrombin inhibition, slope normalized to DMSO ([4]; peptide 8.33E+00 uM): 50.4 and 48.8 and 50.8
microsomal CLint [5, 9]: 73.8 µL/min/mg
microsomal CLint [5, 10]: 70.2 µL/min/mg
microsomal CLint [5, 11]: 77.1 µL/min/mg
half-life [5, 12]: 18.8 min
half-life [5, 13]: 19.7 min
half-life [5, 14]: 18 min
half-life [5, 15]: 18.8 ± 0.7 min
microsomal CLint [5, 16]: 74 ± 3 µL/min/mg
SIF stability, Residual peptide Average [6]: 91.31
SIF stability, Residual peptide [6]: 90.99 and 82.41 and 100.52
remaining at 8 h [7]: 91 ± 9%

O=C1CCSCc2cccc(n2)CSCCNC(=O)C2CN(C(=O)c3ccc(Cl)s3)CCN2C(=O)[C@H](CO)N1 (some centres unmarked) [compound 24]
Rat alpha thrombin inhibition, slope normalized to DMSO [1, 8]: 3.2 and 2.1 and 2.4
Rat alpha thrombin inhibition, slope normalized to DMSO ([1]; peptide 1.67E+01 uM): 12.6 and 11.9 and 11.7
Rat alpha thrombin inhibition, slope normalized to DMSO ([1]; peptide 2.08E+00 uM): 49.1 and 48.5 and 49.4
Rat alpha thrombin inhibition, slope normalized to DMSO ([1]; peptide 3.33E+01 uM): 7.2 and 6.5 and 6.2
Rat alpha thrombin inhibition, slope normalized to DMSO ([1]; peptide 4.17E+00 uM): 33.5 and 33.2 and 33.1
Rat alpha thrombin inhibition, slope normalized to DMSO ([1]; peptide 6.67E+01 uM): 4.2 and 3.4 and 3.2
Rat alpha thrombin inhibition, slope normalized to DMSO ([1]; peptide 8.33E+00 uM): 18.9 and 18.7 and 17.7
SGF stability, Residual peptide Average [2]: 99.25
SGF stability, Residual peptide [2]: 102.40 and 99.33 and 96.01
remaining at 8 h [2]: 99 ± 3%
PAMPA permeability: % permeability [3]: 2.0 ± 1.7%
Papp at 50 μM [3]: 0.049 ×10⁻⁶ cm/s
Permeability% Average [3]: 2.0%
Permeability% R1 [3]: 0.0459%
Permeability% R3 [3]: 3.39%
Human alpha thrombin inhibition, slope normalized to DMSO ([4]; peptide 1.02E-03 uM): 95.9 and 98.2 and 97.4
Human alpha thrombin inhibition, slope normalized to DMSO ([4]; peptide 1.04E+00 uM): 81.9 and 85.8 and 83.3
Human alpha thrombin inhibition, slope normalized to DMSO ([4]; peptide 1.27E-04 uM): 100.0
Human alpha thrombin inhibition, slope normalized to DMSO ([4]; peptide 1.30E-01 uM): 95.8 and 97.8
Human alpha thrombin inhibition, slope normalized to DMSO [4, 8]: 5.8 and 7.8 and 9.3
Human alpha thrombin inhibition, slope normalized to DMSO ([4]; peptide 1.63E-02 uM): 98.1 and 95.1
Human alpha thrombin inhibition, slope normalized to DMSO ([4]; peptide 1.67E+01 uM): 24.2 and 34.4 and 34.5
Human alpha thrombin inhibition, slope normalized to DMSO ([4]; peptide 2.03E-03 uM): 107.0
Human alpha thrombin inhibition, slope normalized to DMSO ([4]; peptide 2.08E+00 uM): 75.9 and 67.7 and 77.5
Human alpha thrombin inhibition, slope normalized to DMSO ([4]; peptide 2.54E-04 uM): 106.8 and 94.5 and 91.2
Human alpha thrombin inhibition, slope normalized to DMSO ([4]; peptide 2.60E-01 uM): 93.5 and 89.6 and 97.8
Human alpha thrombin inhibition, slope normalized to DMSO ([4]; peptide 3.18E-05 uM): 101.5 and 97.9 and 106.2
Human alpha thrombin inhibition, slope normalized to DMSO ([4]; peptide 3.26E-02 uM): 103.3 and 97.7 and 104.2
Human alpha thrombin inhibition, slope normalized to DMSO ([4]; peptide 3.33E+01 uM): 16.8 and 22.5 and 20.8
Human alpha thrombin inhibition, slope normalized to DMSO ([4]; peptide 4.07E-03 uM): 97.2 and 91.1
Human alpha thrombin inhibition, slope normalized to DMSO ([4]; peptide 4.17E+00 uM): 54.3 and 66.2 and 66.1
Human alpha thrombin inhibition, slope normalized to DMSO ([4]; peptide 5.09E-04 uM): 94.9 and 97.9
Human alpha thrombin inhibition, slope normalized to DMSO ([4]; peptide 5.21E-01 uM): 90.1 and 82.7 and 89.7
Human alpha thrombin inhibition, slope normalized to DMSO ([4]; peptide 6.36E-05 uM): 101.8 and 98.6 and 104.2
Human alpha thrombin inhibition, slope normalized to DMSO ([4]; peptide 6.51E-02 uM): 97.4 and 97.6
Human alpha thrombin inhibition, slope normalized to DMSO ([4]; peptide 6.67E+01 uM): 12.2 and 13.3 and 13.7
Human alpha thrombin inhibition, slope normalized to DMSO ([4]; peptide 8.14E-03 uM): 97.0 and 98.1 and 103.6
Human alpha thrombin inhibition, slope normalized to DMSO ([4]; peptide 8.33E+00 uM): 51.4 and 50.3 and 44.5
microsomal CLint [5, 9]: 75.7 µL/min/mg
microsomal CLint [5, 10]: 76.9 µL/min/mg
microsomal CLint [5, 11]: 68.3 µL/min/mg
half-life [5, 12]: 18.3 min
half-life [5, 13]: 18 min
half-life [5, 14]: 20.3 min
half-life [5, 15]: 18.9 ± 1 min
microsomal CLint [5, 16]: 74 ± 4 µL/min/mg
SIF stability, Residual peptide Average [6]: 94.64
SIF stability, Residual peptide [6]: 97.98 and 88.07 and 97.88
remaining at 8 h [7]: 95 ± 6%
